Experimental data taken from patent publication US11413322B2, “Immunotherapy for angiogenic disease” (International Institute of Cancer Immunology, Inc., priority 2014, dated 2022).
“Also recorded” adds a separate entry of the source. Ends that are not written are not given here.

Legend:
[1] = system: laser-induced choroid coat angiogenesis; assay: Mouse model of laser-induced choroid coat angiogenesis, WT1 peptide vaccine (Example 1); assay type: in vivo, mouse (C57BL/6J)
Protocol: Male C57BL/6J mice (provided by CLEA Japan, Inc.) were used. At the beginning of the experiment, the mice were 8 weeks old (body weight: about 20 to 25 g). The mice were free-fed with laboratory chow (manufactured by Oriental Yeast Co., Ltd.) and tap water. Six mice were used for each administration group.
The resultant was diluted to 0.227 or 2.27 mg/mL with sterilized PBS. The resultant WT1 solution and Montanide ISA51 VG were mixed so that the volume ratio was 1:1.27 to prepare emulsions of 0.1 μg/μL, 1 μg/μL, and 10 μg/μL. Each of the emulsions was intracutaneously administered at 10 μL/body. Administered doses were 1 μg/body, 10 μg/body, and 100 μg/body. Timing of administrations were on 15, 22, 29, and 36 days after photocoagulation.
Specifically, with respect to the mice of administration groups (groups 1 to 4) administered with the test substance (WT1 peptide), the administration was carried out through the following procedure.
(1) Grouping was carried out on the basis of area of fluorescence leakage on 14 days after the photocoagulation.
(3) Abdomen was shaved with hair clippers, and then intracutaneous administration was carried out using a 30 G injection needle.
(3) Photocoagulation was carried out using Multi Color Laser Photocoagulator (red) (manufactured by NIDEK CO., LTD.) under the following coagulation conditions: spot size of 50 μm, output of 60 mW, and coagulation time of 0.1 second. […]
(2) Dilatation of pupils was carried out with Mydrin-P, and then general anesthesia was performed by intramuscular administration at 1 mL/kg of a mixture of Ketalar injection (manufactured by DAIICHI SANKYO COMPANY, LIMITED) and Celactal injection (manufactured by Bayer) (7:1). (3) Fluorescite (Manufactured by Alcon, Inc.) was injected at 0.1 mL/kg via the tail vein, and then fluorescence ocular fundus angiography was carried out using Micron III. (4) An area of fluorescence leakage was calculated using an image analysis software. […]

[2] = system: choroidal neovascular area; assay: Mouse laser-induced choroidal neovascularization, WT1235m and WT1332 (Example 2); assay type: in vivo, mouse (CBF-1); settings: 200 μg/body intracutaneous, 4 administrations, FIG. 5; for choroidal neovascular area compared to PBS administration group: time course 2 to 6 weeks
Protocol: Two species of WT1 peptides: WT1235m ([…](SEQ ID NO: 19)) and WT1332 ([…](SEQ ID NO: 32)) were used as test substances, and following setting of administration groups were provided to conduct an experiment in the same method and procedure as Example 1. The WT1235m was a peptide in which methionine in position 2 of WT1235 (SEQ ID NO: 9) was replaced with tyrosine.
Fluorescence ocular fundus angiography was carried out at 2 weeks, 3 weeks, 4 weeks, 5 weeks, and 6 weeks after the photocoagulation to analyze time-dependent change of choroidal neovascular area. […] In WT1332 administration group, choroidal neovascular area at 6 weeks after the photocoagulation was reduced to about 70% of choroidal neovascular area at 2 weeks after the photocoagulation.

Sequence | choroidal neovascular area at 6 weeks after the photocoagulation relative to area at 2 weeks after the photocoagulation ([1]; WT135 group, dose not specified (1, 10, 100 μg/body applied), intracutaneous, FIG. 4) | choroidal neovascular area, change with administration (vs PBS administration group) ([1]; any applied dose of 1, 10 and 100 μg/body intracutaneous, time course 2 to 6 weeks, FIG. 3, FIG. 4) | choroidal neovascular area at 6 weeks after the photocoagulation relative to area at 2 weeks after the photocoagulation ([2]; CBF-1 mice) | choroidal neovascular area compared to PBS administration group [2] | choroidal neovascular area at 6 weeks after the photocoagulation compared with 2 weeks (in words) ([2]; CBF-1 mice)
APVLDFAPPGASAYGSLG [WT135, WT1 peptide] | about 50% | Decrease in choroidal neovascular area; also recorded: decreasing trend |  |  | 
KRYFKLSHLQMHSRKH [WT1332, WT1 peptide] |  |  | about 70% | Decrease in choroidal neovascular area | 
CYTWNQMNL [WT1235m] |  |  |  | Decrease in choroidal neovascular area | the same as that at 2 weeks after the photocoagulation
